This is an account of results in patent publication US9320724B2, “Method of improving cognition and increasing dendritic complexity in humans with down syndrome and compositions therefor” (priority 2013, dated 2016).

The test system of series [1] is Fgf2. The note with it: rats; IP injections; cited from earlier work.
The test system of series [2] is Ts65Dn mice. The note with it: cited from earlier work.
The conditions of series [3]: in vivo; cited from earlier work.
Series [4] concerns Ts65Dn and 2N mice. As to the kind of experiment: Cardiovascular and respiratory system monitoring (MouseOx vital signs monitor). Conditions: nadolol 5 mg/kg IP, 1 h later formoterol 2 mg/kg IP or saline, tested 4 h later. As for the experimental part: (§1) Pharmacological Treatments. […] For details on methods of drug injections see FIG. 16.
Cardiovascular and respiratory system monitoring. Peripheral effects of fomoterol were assessed using MOUSEOX® Small Animal Vital Signs Monitor (Starr). The monitor was attached to a collar clip with an LED sensor to enable recordings in free-moving mice. To minimize stress before recording, the collar clip was attached to each animal. After five minutes, heart rate, respiratory rate, and oxygen saturation were recorded using MOUSEOX® 6.3.13 for 10 minutes.
(§2) FIG. 16. Strategy used for performing IP injections of βAR agonist and antagonist and behavioral testing. […] Four hours later, the mice were tested for cardiovascular and respiratory system effects, open field activity, or fear conditioning. The process started with open field-testing on day 1 followed by fear conditioning on days 4 (training) and 5 (testing).

For series [5] the following is noted: oral administration in rodents; cited from earlier work.
In series [6] the test system is Ts65Dn and 2N mice. As to the kind of experiment: Fear conditioning (contextual learning). The format is in vivo, mouse. The note with it: context test one day after training, nadolol 5 mg/kg IP then formoterol 2 mg/kg IP or saline. As for the experimental part:
as §1
b) Fear Conditioning. […] The fear conditioning tests were done using four FreezeScan chambers (Clever Sys) on days 4 and 5 after the start of the open field-testing. […] Four hours later, the mice were placed in the fear-conditioning chamber and their baseline activity was recorded for three minutes. At the end of this period, each mouse was exposed to five shocks (2 seconds each, 0.5 mA) with inter-trial intervals of 80 seconds. Twenty-four hours later, the mice were injected again, similar to the Training Day, and returned to the same fear-conditioning chamber for five minutes and their activity was recorded. Freezing was defined as a lack of movement for 3 frames (29 frames/s).
as §2

Series [7] deals with Ts65Dn mice. Conditions: cited from earlier work; for contextual learning: earlier study.
The next series concerns synaptophysin. As to the kind of experiment: Synaptophysin immunostaining of the DG (synaptic density). The format is in vivo, mouse. The note with it: daily IP nadolol alone or nadolol with formoterol until day 16. As to the method:
(§3) At the end of this period, all mice were anesthetized, perfused, and the brain was extracted. The right hemisphere from each brain was fixed in 4% paraformaldehyde followed by dehydration. The methodology for staining has been published before. […] The left hemisphere was flash frozen and used for gene expression studies.
(§4) Before all staining(s), to inhibit endogenous peroxidase, 70-μm-thick floating sections were pre-incubated in 0.5% H2O2 in 50% methanol for 30 minutes at RT. This was followed by pre-incubating the sections in 0.1% triton and 10% normal serums(s) (NS, Vector Labs) for 1 hour at RT. This was followed by incubation in primary antibodies overnight at RT. […] For DCX staining the sections were kept in pre-warmed (37° C.) for 30 minutes before staining. This was followed by incubation in secondary anti-bodies that were diluted in 0.1% triton and corresponding 1% NS. The sections were then incubated in ABC Lite (1:1000, Vector) for 1 hour. Staining was terminated by incubating in DAB (0.66 mg/ml in tris-HCl) for 5-10 minutes. Finally, the sections were washed, dehydrated and mounted.
(§5) FIG. 16. Strategy used for performing IP injections of βAR agonist and antagonist and behavioral testing. […] Four hours later, the mice were tested for cardiovascular and respiratory system effects, open field activity, or fear conditioning. […]

Another series has as its system BrdU-positive profiles. The experiment in a line: BrdU cell count in the DG (cell proliferation). The format is in vivo, mouse. The note with it: 15 days of treatment, then BrdU 50 mg/kg IP daily for 5 days. As to the method:
To identify proliferating cells, we used 5-bromo-2′-deoxyuridine (BrdU, Sigma). It was dissolved in PBS, filtered, and kept at 4° C. till use. After 15 days of treatment, each mouse was injected IP daily (50 mg/kg) with BrdU solution for 5 days. Thereafter, on day 21, all mice were anesthetized and transcardially perfused with ice-cold saline. The entire brain was immediately removed and the two hemispheres were separated. The left hemisphere was fixed overnight, cut, and stored. […] This was followed by incubation of sections in ABC.
Stereo-Investigator (MBF) was used to quantify the total number of BrdU-positive cells in the entire septo-temporal extent of DG. Following the outlining of the DG area at 4×, each positive profile was identified using a 100× oil objective. Unbiased stereological methods were used to determine the total number of BrdU-immunoreactive-profiles throughout the hippocampus. A Nanozoomer system (Hamamatsu 2.0 RS) was used to capture images of the entire slide in each case. High magnification images were captured using the Nanozoomer and stored.

Series [8] has as its system Fgf2. The experiment in a line: Fgf2 gene expression, real-time PCR in DG micro-punches. Conditions: normalized to B-actin and Gapdh and to a 2N mouse. It is filed as in vivo. In general terms: Quantitative PCR measures a nucleic acid by following its amplification.
Series [9] deals with Ts65Dn and 2N mice. As to the kind of experiment: Open field activity. The format is in vivo, mouse. The note with it: nadolol 5 mg/kg IP then formoterol 2 mg/kg IP or saline; for total distance travelled: in 10 minutes. As to the method:
as §1
a) Open Field Activity. Prior to testing, the mice were handled for five days for habituation. […] Four hours later, the mice were tested for open field activity. The open field arena (450 mm×450 mm) had visual cues on the walls. […] The arena was cleaned after each session. The velocity, total distance traveled, and the time spent in the peripheral 50% versus central 50% area of the arena (bouts) for each mouse were quantified and analyzed using TopScan Lite (Clever Sys).
as §2

A further series relates to DCX-positive neurons. The experiment in a line: DCX immunostaining: number and dendritic branching of newly born DGCs. The format is in vivo, mouse. Conditions: nadolol alone or nadolol with formoterol. As to the method: as §3, §4
Another series deals with c-Fos. The experiment in a line: c-Fos immunostaining of the DGC layer. It is filed as in vivo, mouse. The note with it: daily IP nadolol alone or nadolol with formoterol until day 16. As for the experimental part: as §3, §4, §5

Each structure is given as a SMILES string. Bounds are passed on as bounds.

In the case of `CC(C)(C)NCC(O)c1cc(Cl)c(N)c(Cl)c1` (stereo not drawn) [clenbuterol], in the series with Fgf2 [1], the “Fgf2 mRNA levels in the hippocampus” value was “significant increase”.
With `CNCCC(Oc1ccc(C(F)(F)F)cc1)c1ccccc1` (stereo not drawn) [fluoxetine], the neurogenesis result in the series with Ts65Dn mice [2] is recorded as “promote neurogenesis”.
For the molecule `COc1ccc(CC(C)NCC(O)c2ccc(O)c(NC=O)c2)cc1` (stereo not drawn) [formoterol], the “crossing of the blood brain barrier” value in [3] was “cross the blood brain barrier (BBB) and reach the brain”. Also, in the series on Ts65Dn and 2N mice [4] (2N mice), the O2 saturation was determined as 93.221±0.36% and the heart rate came out at 638.440±44.77 pulse per minute. In the series with Ts65Dn and 2N mice [4] (Ts65Dn mice), this molecule came in with an O2 saturation of 92.205±1.31%, a heart rate of 672.620±36.58 pulse per minute and a respiratory rate of 189.090±8.40 per minute. For the same molecule, in series [5], the “time to reach the brain” value was at most 30 min. This molecule also came in with a duration of freezing with Ts65Dn and 2N mice [6] (Ts65Dn mice) of 34.040±3.66 seconds per minute.
Consider `N[C@H](C(=O)O)[C@H](O)c1ccc(O)c(O)c1` [L-DOPS, L-threo-3,4-dihdroxyphenylserine], for which the contextual learning result with Ts65Dn mice [7] was “restored contextual learning”.
With `O=C(NCCNCC(O)COc1ccc(O)cc1)N1CCOCC1` (stereo not drawn) [xamoterol], the contextual learning result in the series with Ts65Dn mice [7] is on record as “restored contextual learning”. Also, the “spatial learning and hyperactivity” value in the series with Ts65Dn mice [7] (later studies) is given as “did not improve spatial learning and/or reduce hyperactivity”.
`CC(C)(C)NCC(O)COc1cccc2c1CC(O)C(O)C2` (stereo not drawn) [nadolol]: the “percentage of area covered by synaptophysin staining in the DG” value in the series with synaptophysin (2N mice) is listed as 27.40±11.00%; in the series with synaptophysin (Ts65Dn mice) it was 21.50±1.00%. In addition, the “total number of BrdU-positive profiles in the DG” value in the series with BrdU-positive profiles (2N mice) was 3,161.390±900; with BrdU-positive profiles (Ts65Dn mice) it was 2,133.290±491. The “Fgf2 gene expression in DG micro-punches” value in the series on Fgf2 [8] (2N mice) stood at 1.000±0.41; with Fgf2 [8] (Ts65Dn mice) it was 0.344±0.07. Moreover, the total distance travelled was found to be 18.233±1.48 meters in the series with Ts65Dn and 2N mice [9] (2N mice); 30.424±2.70 meters with Ts65Dn and 2N mice [9] (Ts65Dn mice). The “number of bouts, central 50% area” value is 39.46±4.96 with Ts65Dn and 2N mice [9] (2N mice); 60.25±4.95 in the series with Ts65Dn and 2N mice [9] (Ts65Dn mice). Moreover, the “number of bouts, peripheral 50% area” value with Ts65Dn and 2N mice [9] (2N mice) worked out at 45.00±5.68. In addition, in the series with Ts65Dn and 2N mice [9] (2N mice, 4 h later), the “mean velocity in the open field arena” value was 31.465±2.74 mm/s. Also, the “number of DCX-positive DGCs” value is 5391.36±744 in the series with DCX-positive neurons (2N mice) and 2837.79±500 in the series on DCX-positive neurons (Ts65Dn mice). Also, the “order of dendritic branching of DCX-positive neurons” value in the series on DCX-positive neurons (2N mice) amounted to 2.05±0.12; in the series with DCX-positive neurons (Ts65Dn mice), 1.58±0.08. For the same molecule, the duration of freezing in the series on Ts65Dn and 2N mice [6] (2N mice) worked out at 46.761±3.09 seconds per minute; with Ts65Dn and 2N mice [6] (Ts65Dn mice), 19.28±4.79 seconds per minute. The “density of c-Fos-positive DGCs” value with c-Fos (2N mice) was 179.30±22.4 cells/mm^2; in the series with c-Fos (Ts65Dn mice) it was 109.42±13.0 cells/mm^2.
